Assay results taken from US20240366693A1, “COMPOSITIONS FOR ENHANCING IMMUNOTHERAPY EFFICACY IN COLORECTAL CANCER TREATMENT” (The Chinese University of Hong Kong, priority 2023, published 2024).
Values belong to the compound of their own block, whether it stands above or below them.

How the values were obtained:
CD4+ T cells = assay: Foxp3+ Treg differentiation of CD4+ T cells in vitro; assay type: cell-based, mouse
Description: T cells were isolated from spleens of tumour-bearing mice by negative selection using magnetic cell separation (EasySep mouse T cell isolation kit, CD8+ T cell isolation kit or CD4+ CD25+ Regulatory T cell Isolation Kit II; STEMCELL Technologies, Vancouver, Canada). Isolated T cells were cultured in Roswell Park Memorial Institute 1640 medium supplemented with 10% FBS, 50 μM β-mercaptoethanol, 10 ng/ml mouse recombinant interleukin-2 (IL-2), 0.1 ng/mL transforming growth factor β (TGFβ) and activated with Dynabeads mouse anti-CD3/CD28 beads (Thermo Fisher Scientific, Waltham, MA) for 72 hours. Cells were then collected for analysis.

human AHR protein = target: T1, human AHR protein (Homo sapiens, UniProt P35869); assay: biochemical; assay type: binding
T1 sequence (P35869 11-848): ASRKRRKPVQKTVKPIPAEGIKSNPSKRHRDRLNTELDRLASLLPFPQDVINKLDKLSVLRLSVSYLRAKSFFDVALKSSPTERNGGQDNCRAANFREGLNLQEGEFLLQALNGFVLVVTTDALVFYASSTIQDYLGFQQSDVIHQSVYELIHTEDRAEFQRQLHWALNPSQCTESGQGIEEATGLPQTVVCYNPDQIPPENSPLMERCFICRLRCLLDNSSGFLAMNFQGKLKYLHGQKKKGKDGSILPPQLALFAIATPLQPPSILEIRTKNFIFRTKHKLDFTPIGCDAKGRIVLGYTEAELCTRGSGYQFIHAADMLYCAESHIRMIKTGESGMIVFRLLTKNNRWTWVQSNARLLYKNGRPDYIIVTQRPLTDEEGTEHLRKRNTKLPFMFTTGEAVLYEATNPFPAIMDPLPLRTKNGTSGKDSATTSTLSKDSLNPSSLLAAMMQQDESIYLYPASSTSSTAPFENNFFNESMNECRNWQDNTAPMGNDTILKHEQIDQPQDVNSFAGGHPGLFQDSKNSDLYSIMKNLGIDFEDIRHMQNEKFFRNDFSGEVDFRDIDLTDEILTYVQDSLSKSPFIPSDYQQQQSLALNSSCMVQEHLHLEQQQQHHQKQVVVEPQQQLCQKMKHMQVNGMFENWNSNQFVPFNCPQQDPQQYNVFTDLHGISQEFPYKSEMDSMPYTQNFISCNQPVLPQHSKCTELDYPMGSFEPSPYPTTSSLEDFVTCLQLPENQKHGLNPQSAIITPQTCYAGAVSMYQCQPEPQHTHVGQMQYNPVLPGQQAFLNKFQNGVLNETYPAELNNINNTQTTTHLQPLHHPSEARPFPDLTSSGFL
From the text: We also performed the surface plasma resonance (SPR) assay to explore the interaction between ICA/Kyn with the human AHR receptor. […] These support our hypothesis that ICA displaces Kyn from AHR receptor and inhibited Kyn-mediated Treg differentiation through receptor competition.

CT26 = assay: ICA model in CT26 syngeneic mice with anti-PD1 and Kyn supplementation; assay type: in vivo, mouse; settings: Kyn 10 mg/kg i.p. twice weekly
Description: For indolecarboxylic acid (ICA) model, ICA (18 mg/kg, Sigma-Aldrich, St. Louis, MO) was gavaged to mice daily. Tumour inoculation and dosing schedule of anti-PD1 or isotype control is the same as described above. After the outgrowth of palpable tumours, kynurenine (Kyn, 10 mg/kg, Sigma-Aldrich) was intraperitoneally injected into mice twice weekly.

CD8+ T cells = assay: Cytotoxic CD8+ T cell markers, T cells from human PBMC; assay type: cell-based; settings: TH1020 with butyrate
Description: T cells isolated from healthy human peripheral blood mononuclear cells (PBMC) using immunomagnetic negative selection kit (17951, Stemcell Technologies, Vancouver, CA). Isolated T cells were then cultured in complete RPMI-1640 medium supplied with human CD3/CD28 magnet beads (11161D, Thermo Fisher Scientific, Waltham, US) and 30 U/ml recombinant human IL-2 (589104, BioLgend, San Diego, US) for expiation and activation for three days. Mouse T cells were isolated from the spleen of naïve mice and purified with Mouse T cell isolation kit (19851, Thermo Fisher Scientific, Waltham, US), cultured in complete RPMI-1640 medium with mouse CD3/CD28 beads (11456D, Thermo Fisher Scientific, Waltham, US) and 30 U/ml recombinant mouse IL-2 (575404, BioLegend, San Diego, US).
Cytotoxic CD8+ T cell markers Granzyme B, IFN-γ, TNF-α under the in vitro treatments of R.i CM, NaBu or TLR5 inbibitor TH1020 (HY-116961, MedChemExpress, Monmouth Junction, US) were analyzed with flow cytometry. Isolated human T cells were stimulated with 30 ng/ml PMA, 1 μg/ml ionomycin and 2.5 μg/ml monensin in complete RPMI-1640 medium at 37° C. for 4 hours. […]

NF-κB = assay: Phospho-NF-κB p65 in activated Jurkat E6.1 T cells; assay type: cell-based, human; settings: TH1020
Description: Phospho-NF-κB p65 (Ser536) Rabbit mAb (3033, Cell Signalling Technology, Danvers, US, 1:1000) and NF-κB p65 (D14E12) Rabbit mAb (8242, Cell Signalling Technology, Danvers, US, 1:1000) were used to measure NF-κB nuclear translocation in αCD3/αCD28/IL2 activated Jurkat E6.1 T cells.
Normal human epithelial cell NCM460, human CRC cell lines HCT116, LoVo, SW480, and mouse CRC cell lines MC38 and CT26 were cultured in Dulbecco's Modified Eagle's Medium (DMEM) with 10% fetal bovine serum (FBS) and 1% penicillin-streptomycin (P/S). Jurkat E6.1 (TIB-152, ATCC) was cultured in RPMI-1640 supplied with 10% FBS and 1% penicillin-streptomycin and activated in 3 μg/ml anti-CD3 (300332, BioLgend, San Diego, US), 5 μg/ml anti-human CD28 (302934, BioLgend, San Diego, US) and 100 IU/ml recombinant human IL-2 (589104, BioLgend, San Diego, US) pre-coated wells for 3 days.

MC-38 = assay: MC38 rectum orthotopic tumour model; assay type: in vivo, mouse
Description: A MSI type mouse CRC cell line, MC-38 cell mix [5×10^5 cells in 10 μL Matrigel (354248, Corning, Manassas, US) per mouse] was orthotopically implanted into the rectum of C57BL/6. […] RMP1-14, Bio X Cell, West Lebanon, US) or control IgG (100 μg per mouse, BP0089, Colone: 2A-3, Bio X Cell) was injected intraperitoneally into MC-38 bearing mice, and followed by total five injections with three days interval one week after MC38 implantation. For tumour-infiltrating immune cell analysis, tumour from MC-38 and CT-26 bearing rectal orthotopic mouse models was minced on ice and digested in PBS buffer containing 0.5 mg/mL collagenase IV and 0.25 mg/ml DNase I at 37° C. for 30 min. After digestion, tumour tissue was filtered through a 70 μm cell strainers, and then distributed into different panels. For the surface staining of MDSC, cells were stained with Brilliant Violet 605 anti-mouse CD45 antibody (30-F11) (103140, BioLegend), PerCP/Cyanine5.5 anti-mouse/human CD11b antibody (M1/70) (101228, BioLegend), PE anti-mouse Ly-6G/Ly-6C (Gr-1) antibody (RB6-8C5). MDSC was gated in CD45^+ CD11b^+ Gr-1^+. For CD8 functional markers staining, the procedures were similar with the in vitro T cell analysis. Antibodies used for staining are as following: Brilliant Violet 605 anti-mouse CD45 antibody (30-F11) (103140, BioLegend), PE anti-mouse CD3 antibody (17A2) (100206, BioLegend), Brilliant Violet anti-mouse CD8a antibody (53-6.7) (100738, BioLegend), PE/Cyanine5 anti-mouse CD4 antibody (GK1.5) (100410, BioLegend), PE/Cyanine7 anti-human/mouse Granzyme B recombinant antibody (QA16A02) (372214, BioLegend), FITC anti-mouse IFN-γ antibody (XMG1.2) (505806, BioLegend), Brilliant Violet 711 anti-moue TNF-α (MP6-XT22) (506349, BioLegend). Flow Cytometry was performed on FACSAria cell sorter (BD Biosciences, Franklin Lakes, US). Data was analyzed by FlowJo 10.4.

CT-26 = assay: CT26 rectum orthotopic tumour model; assay type: in vivo, mouse
From the text: CT-26 tumour-bearing BALB/c mice with the same setting and treatment of MC-38 orthotopic model was developed to evaluate the efficacy of αPD-1 antibody immunotherapy on microsatellite stable (MSS)-type colorectal cancer. All experimental procedures were approved by the Chinese University of Hong Kong Animal Ethics Committee.
For tumour-infiltrating immune cell analysis, tumour from MC-38 and CT-26 bearing rectal orthotopic mouse models was minced on ice and digested in PBS buffer containing 0.5 mg/mL collagenase IV and 0.25 mg/ml DNase I at 37° C. for 30 min. After digestion, tumour tissue was filtered through a 70 μm cell strainers, and then distributed into different panels. For the surface staining of MDSC, cells were stained with Brilliant Violet 605 anti-mouse CD45 antibody (30-F11) (103140, BioLegend), PerCP/Cyanine5.5 anti-mouse/human CD11b antibody (M1/70) (101228, BioLegend), PE anti-mouse Ly-6G/Ly-6C (Gr-1) antibody (RB6-8C5). MDSC was gated in CD45^+ CD11b^+ Gr-1^+. For CD8 functional markers staining, the procedures were similar with the in vitro T cell analysis. Antibodies used for staining are as following: Brilliant Violet 605 anti-mouse CD45 antibody (30-F11) (103140, BioLegend), PE anti-mouse CD3 antibody (17A2) (100206, BioLegend), Brilliant Violet anti-mouse CD8a antibody (53-6.7) (100738, BioLegend), PE/Cyanine5 anti-mouse CD4 antibody (GK1.5) (100410, BioLegend), PE/Cyanine7 anti-human/mouse Granzyme B recombinant antibody (QA16A02) (372214, BioLegend), FITC anti-mouse IFN-γ antibody (XMG1.2) (505806, BioLegend), Brilliant Violet 711 anti-moue TNF-α (MP6-XT22) (506349, BioLegend). Flow Cytometry was performed on FACSAria cell sorter (BD Biosciences, Franklin Lakes, US). Data was analyzed by FlowJo 10.4.

[1] = treatment alone vs αPD-1 therapy and control groups

- Kd (human AHR protein): 61 µM
Compound: Nc1ccccc1C(=O)CC(N)C(=O)O (centres unmarked) [Kyn, Kynurenine, reference compound]
- Treg differentiation (CD4+ T cells; Kyn 50 μM, P<0.0001): significantly induced Treg differentiation
- effect of Kyn supplementation on ICA immune effects (CT26): also reversed by Kyn supplementation
- effect of Kyn supplementation on ICA tumour effect (CT26): reversed the effect of ICA

Compound: c1ccc(Cn2c(Sc3ncnc4c3sc3ncccc34)nnc2-c2ccncc2)cc1 [TH1020, reference compound]
- butyrate promotion of Granzyme B, IFN-γ and TNF-α in CD8+ T cells under TLR5 antagonist (CD8+ T cells): abolished the effective promotion of butyrate on Granzyme B, IFN-γ and TNF-α in CD8+ T cells
- R.i CM- and butyrate-induced phospho-NF-κB under TLR5 antagonist (NF-κB): inhibited by Th1020

Compound: CCCC(=O)[O-].[Na+] [NaBu, sodium butyrate]
- efficiency of αPD-1 therapy in combination (MC-38; combination of αPD-1 with R.i or NaBu): did not enhance the efficiency of αPD-1 therapy
- MC38 orthotopic tumour growth (MC-38; monotreatment, R.i 1×10^8 CFU daily gavage, 150 mM NaBu in drinking water, αPD-1 100 μg per mouse): inhibited MC38 orthotopic tumour growth
- Granzyme B+, IFN-γ+ and TNF-α+ CD8+ T cells (MC-38; mouse, in vivo): increased
- MDSCs (MC-38; mouse, in vivo): decreasing MDSCs
- tumour infiltrating CD8+ T cells (MC-38; mouse, in vivo): increased infiltrating CD8^+ T cells
- anti-tumour effects in combination with anti-PD-1 (CT-26; combination with anti-PD-1): further heightened the anti-tumour effects
- infiltrating and cytotoxic CD8+ T cells in combination with anti-PD-1 (CT-26; combination with anti-PD-1): additional effects on these immune cells
- proportion of MDSCs in tumours (CT-26; monotherapy): reduced the proportion of MDSCs in tumours
- Granzyme B+, IFN-γ and TNF-α+ CD8+ T cells (CT-26; monotreatment): significantly increased
- proportion of infiltrating CD8+ T cells (CT-26; monotreatment): significantly increased
- tumour size (CT-26; [1]): still reduced
- tumour weight (CT-26; [1]): still reduced

Compound: O=Cc1c[nH]c2ccccc12 [IAld, indole-3-carboxaldehyde, reference compound]
- Treg differentiation, treatment alone (CD4+ T cells; naïve CD4+ T cells, without Kyn): none significantly affected Treg differentiation

Compound: Cc1ccccc1N=Nc1ccc(NC(=O)c2ccnn2C)c(C)c1 [CH-233191, reference compound]
- Kyn and ICA effects on Treg differentiation (CD4+ T cells; CH-233191 10 μM): abolished both Kyn and ICA effects in mediating Treg differentiation
